Patent US12653194B2, “Compositions and methods for promoting soil microbials for plant health and stress tolerance” (The United States of America, as represented by The …, priority 2021, dated 2026)

System: soil microbials (fungi and bacteria)
Test: Peach orchard field trial: soil fungal and bacterial abundance (16S rRNA / ITS sequencing, PCA)
Format: in vivo
Conditions: applied in 110 mL water within 15 cm of tree trunk plus 190 mL water, extract 34 HCE about 16x diluted (0.0625xHCE), 300,000 IJs per tree
Source text: The pheromone can be extracted with alcohol in a concentration range from about 0% to about 95%. The liquid (supernatant) may be removed and concentrated to produce a dry extract by using a stream of nitrogen, by rotary evaporation, by lyophilization, or by any equivalent means. The dry powder may be resuspended in water and centrifuged to separate insoluble debris from water-soluble pheromones. For storage the supernatant may be concentrated to dryness using a lyophilizer, a spray drier, or any equivalent means. The concentration and ratio of the pheromone mixture was evaluated for its activity on plants. […] In addition, for example, one insect host cadaver extract from Galleria mellonella (average weight of G. mellonella larvae, wax worm, is estimated to be approximately 232+/−57 mg) is diluted in 200 μL water which is physiologically relevant concentration as 1×HCE. When one insect host cadaver extract from Galleria mellonella is resuspended in 3200 μL (about 16 times dilution or 0.0625×HCE). Total 34 HCE S. carpocapsae pheromone extracts with 300,000 S. carpocapsae IJs in 110 mL of water in 15 cm soil surrounding the tree trunk. Then an additional 190 mL of water was added to the 15 cm of soil surrounding the tree trunk. […]

CCOP(=S)(OCC)Oc1nc(Cl)c(Cl)cc1Cl [Chlorpyrifos]
time for which soil microbials were promoted / soil microbial abundance increased: ≤ 2 weeks
